Several values for one entry are separate records, joined by “and”; a condition that tells them apart may be missing. Identical values can stand only once. Blank lines part the entries; values can stand above or below the molecule they belong to. Activity calls are given as the source filed them.
Tests used:
[1] = biological target: T1, Sphingosine 1-phosphate receptor 4 (Homo sapiens, UniProt O95977); experiment: Late-stage fluorescence dose response cell-based assay to identify agonists of the Sphingosine 1-Phosphate Receptor 4 (S1P4): purchased compounds EC50. [Related pubchem assays (depositor defined):AID1509, AID1523, AID1563, AID1686, AID1701, AID1801]; format: functional
T1 sequence (O95977 whole entry): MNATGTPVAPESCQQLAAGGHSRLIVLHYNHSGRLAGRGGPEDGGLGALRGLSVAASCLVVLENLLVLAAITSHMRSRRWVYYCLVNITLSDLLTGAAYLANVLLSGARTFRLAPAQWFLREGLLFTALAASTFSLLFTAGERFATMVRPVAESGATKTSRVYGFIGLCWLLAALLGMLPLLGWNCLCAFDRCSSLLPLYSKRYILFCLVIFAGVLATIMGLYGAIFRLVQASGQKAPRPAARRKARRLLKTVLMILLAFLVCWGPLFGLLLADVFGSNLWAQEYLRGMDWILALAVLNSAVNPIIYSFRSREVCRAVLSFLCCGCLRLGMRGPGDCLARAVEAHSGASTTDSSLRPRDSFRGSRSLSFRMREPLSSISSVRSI

[2] = biological target: T2, Tyrosine-protein phosphatase non-receptor type 7 (Homo sapiens, UniProt P35236); experiment: redox-dependent HePTP inhibition, mechanism study, biochemical, fluorescence (AID 2068); format: functional
T2 sequence (P35236 whole entry): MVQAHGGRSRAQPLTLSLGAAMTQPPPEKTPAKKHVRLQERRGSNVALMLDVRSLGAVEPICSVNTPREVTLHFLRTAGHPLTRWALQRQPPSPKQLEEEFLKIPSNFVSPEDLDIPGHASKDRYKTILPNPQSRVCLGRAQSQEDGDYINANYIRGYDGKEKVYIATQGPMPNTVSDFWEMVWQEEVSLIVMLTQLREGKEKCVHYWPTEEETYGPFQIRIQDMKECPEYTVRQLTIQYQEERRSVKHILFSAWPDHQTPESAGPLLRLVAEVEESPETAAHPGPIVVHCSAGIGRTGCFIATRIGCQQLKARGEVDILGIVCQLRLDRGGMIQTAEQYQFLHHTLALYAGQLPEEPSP

[3] = biological target: Alkaline phosphatase, placental type (Homo sapiens, UniProt P05187); experiment: PLAP enzyme inhibitors, confirmation, biochemical, luminescence (AID 1512); format: functional
[4] = biological target: T3, Alkaline phosphatase, tissue-nonspecific isozyme (Homo sapiens, UniProt P05186); experiment: human TNAP enzyme inhibitors, SAR follow-up, biochemical, luminescent, dose response (AID 1056)
T3 sequence (P05186 whole entry): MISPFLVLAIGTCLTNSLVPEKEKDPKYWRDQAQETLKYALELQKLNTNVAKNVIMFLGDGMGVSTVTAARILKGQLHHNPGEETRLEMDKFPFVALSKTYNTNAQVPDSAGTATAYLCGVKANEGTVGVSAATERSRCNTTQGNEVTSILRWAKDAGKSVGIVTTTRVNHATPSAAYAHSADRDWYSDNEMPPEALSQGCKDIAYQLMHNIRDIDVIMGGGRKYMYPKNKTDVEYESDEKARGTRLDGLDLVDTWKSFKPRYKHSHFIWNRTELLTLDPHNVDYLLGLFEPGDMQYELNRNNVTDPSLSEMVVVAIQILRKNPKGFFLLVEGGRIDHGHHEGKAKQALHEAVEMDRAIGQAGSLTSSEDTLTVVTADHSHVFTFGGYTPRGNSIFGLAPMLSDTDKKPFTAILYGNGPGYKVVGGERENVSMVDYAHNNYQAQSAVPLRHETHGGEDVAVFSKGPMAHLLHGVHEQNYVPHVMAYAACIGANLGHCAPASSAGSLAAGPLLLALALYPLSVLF

[5] = biological target: Eukaryotic translation initiation factor 4E (Mus musculus, UniProt P63073); experiment: eIF4E–eIF4G protein interaction inhibitors, dose response, biochemical, TR-FRET (AID 855); format: functional;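 also: potency for disrupting eIF4E binding to eIF4GI seen as loss of FRET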
[6] = biological target: 1-acylglycerol-3-phosphate O-acyltransferase ABHD5/Perilipin-5 (Homo sapiens, UniProt Q00G26+Q8WTS1); experiment: Luminescence-based biochemical high throughput dose response assay for inhibitors of the interaction of the lipase co-activator protein, abhydrolase domain containing 5 (ABHD5) with perilipin-5 (MLDP; PLIN5) (2K validation set). [Related pubchem assays (depositor defined):AID493035, AID493241]
[7] = biological target: Perilipin-1/ABHD5 (Homo sapiens, UniProt O60240+Q8WTS1); experiment: Luminescence-based biochemical high throughput dose response assay for inhibitors of the interaction of the lipase co-activator protein, abhydrolase domain containing 5 (ABHD5) with perilipin-1 (PLIN1) (2K validation set). [Related pubchem assays (depositor defined):AID493027, AID493057]
[8] = biological target: T4, Short transient receptor potential channel 4 (Mus musculus, UniProt Q9QUQ5); experiment: mouse TRPC4 channel inhibitors, dose response, cell-based, HEK293 TRPC4/mu-opioid, Fluo-4 calcium (AID 434942); format: functional;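 also: potency of inhibitors blocking the TRPC4 calcium response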
T4 sequence (Q9QUQ5 whole entry): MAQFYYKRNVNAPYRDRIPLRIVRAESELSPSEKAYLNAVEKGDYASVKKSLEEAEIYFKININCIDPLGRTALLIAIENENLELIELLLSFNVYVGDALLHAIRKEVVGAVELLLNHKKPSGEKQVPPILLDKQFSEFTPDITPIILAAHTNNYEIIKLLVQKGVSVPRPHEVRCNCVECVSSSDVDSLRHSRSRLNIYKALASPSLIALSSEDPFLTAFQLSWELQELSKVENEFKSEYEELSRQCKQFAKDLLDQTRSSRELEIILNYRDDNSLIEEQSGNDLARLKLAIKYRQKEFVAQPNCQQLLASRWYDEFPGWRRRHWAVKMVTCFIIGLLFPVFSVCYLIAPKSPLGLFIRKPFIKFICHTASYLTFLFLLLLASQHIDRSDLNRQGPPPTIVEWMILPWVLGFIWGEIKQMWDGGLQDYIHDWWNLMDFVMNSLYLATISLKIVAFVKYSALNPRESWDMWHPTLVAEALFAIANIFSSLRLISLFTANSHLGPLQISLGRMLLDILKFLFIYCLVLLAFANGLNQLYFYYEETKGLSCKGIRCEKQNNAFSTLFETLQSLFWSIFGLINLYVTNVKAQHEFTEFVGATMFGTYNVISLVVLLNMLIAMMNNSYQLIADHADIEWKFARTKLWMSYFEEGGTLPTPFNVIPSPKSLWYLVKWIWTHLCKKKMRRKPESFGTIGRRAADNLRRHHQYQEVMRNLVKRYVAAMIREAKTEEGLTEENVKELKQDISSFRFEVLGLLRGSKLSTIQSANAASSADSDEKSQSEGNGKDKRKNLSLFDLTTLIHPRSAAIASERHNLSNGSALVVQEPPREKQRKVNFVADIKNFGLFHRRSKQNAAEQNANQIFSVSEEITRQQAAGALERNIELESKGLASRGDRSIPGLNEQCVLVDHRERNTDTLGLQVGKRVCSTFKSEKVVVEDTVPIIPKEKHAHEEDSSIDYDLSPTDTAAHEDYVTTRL

[9] = biological target: Induced myeloid leukemia cell differentiation protein Mcl-1 (Homo sapiens, UniProt Q07820); format: functional
[10] = biological target: T5, Voltage-gated N-type calcium channel alpha-1B subunit/Amyloid beta A4 precursor protein-binding family A member 1 (Homo sapiens, UniProt Q00975+Q02410); format: protein assay
[11] = biological target: T5, Voltage-gated N-type calcium channel alpha-1B subunit/Amyloid beta A4 precursor protein-binding family A member 1; format: protein assay; remark: listed apart in the source
[12] = biological target: Glyceraldehyde-3-phosphate dehydrogenase (Homo sapiens, UniProt P04406)
[13] = tested on: HEK293; experiment: cells; conditions: Homo sapiens
[14] = tested on: HEK293; experiment: cells; conditions: Homo sapiens; remark: listed apart in the source
[15] = biological target: T6, Ubiquitin-conjugating enzyme E2 N (Homo sapiens, UniProt P61088); format: functional
T6 sequence (P61088 whole entry): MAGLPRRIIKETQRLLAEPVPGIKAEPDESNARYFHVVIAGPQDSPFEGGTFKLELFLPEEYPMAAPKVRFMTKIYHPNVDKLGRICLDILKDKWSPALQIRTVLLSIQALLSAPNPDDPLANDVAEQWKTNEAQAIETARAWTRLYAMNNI

[16] = biological target: Mu-type opioid receptor (Homo sapiens, UniProt P35372); experiment: (§1) Counterscreen for agonists of heterodimerization of the mu 1 (OPRM1) and delta 1 (OPRD1) opioid receptors: Luminescence-based cell-based high throughput dose response assay to identify agonists of OPRM1 homodimerization.; format: functional
[17] = biological target: T7, Type-1 angiotensin II receptor (Homo sapiens, UniProt P30556); experiment: AT1 receptor agonists, dose response, selectivity assay for APJ receptor agonist project, cell-based, uHTS hits (AID 488865); format: functional;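 also: beta-arrestin recruitment to AT1 measured by enzyme fragment complementation luminescence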
T7 sequence (P30556 whole entry): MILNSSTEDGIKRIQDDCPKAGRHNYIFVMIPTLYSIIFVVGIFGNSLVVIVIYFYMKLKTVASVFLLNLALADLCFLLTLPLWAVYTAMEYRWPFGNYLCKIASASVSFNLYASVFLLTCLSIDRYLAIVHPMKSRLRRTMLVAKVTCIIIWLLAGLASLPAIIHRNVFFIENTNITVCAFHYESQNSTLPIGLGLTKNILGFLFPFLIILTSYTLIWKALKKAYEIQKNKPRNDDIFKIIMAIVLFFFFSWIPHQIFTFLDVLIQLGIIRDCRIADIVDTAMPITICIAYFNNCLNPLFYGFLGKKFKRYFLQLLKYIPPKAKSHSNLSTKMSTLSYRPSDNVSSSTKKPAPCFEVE

[18] = biological target: Delta-type opioid receptor (Homo sapiens, UniProt P41143); experiment: as §1, with “of OPRD1” for “of OPRM1”, “homodimerization. [Related pubchem assays (depositor defined):AID504326, AID504355, AID504692, AID504904, AID504905]” for “homodimerization.”; format: functional
[19] = biological target: 5-hydroxytryptamine receptor 5A (Homo sapiens, UniProt P47898); experiment: Counterscreen for agonists of OPRM1-OPRD1 heterodimerization: luminescence-based cell-based high throughput dose response assay to identify agonists of 5-hydroxytryptamine (serotonin) 5A receptor (HTR5A). [Related pubchem assays (depositor defined):AID504326, AID504355, AID504692, AID504904, AID504905]; format: functional
[20] = biological target: T6, Ubiquitin-conjugating enzyme E2 N; format: functional; remark: listed apart in the source
[21] = Fluorescence-based cell-based high throughput dose response assay for inhibitors of the interaction of nucleotide-binding oligomerization domain containing 2 (NOD2) and the receptor-interacting serine-threonine kinase 2 (RIPK2).; format: functional; conditions: Homo sapiens
[22] = biological target: T8, Bcl-2-related protein A1 (Mus musculus, UniProt Q07440); format: functional;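 also: confirmatory dose–response counterscreen on Bfl-1, used to check hits from a UBC13 polyubiquitin inhibitor campaign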
T8 sequence (Q07440 whole entry): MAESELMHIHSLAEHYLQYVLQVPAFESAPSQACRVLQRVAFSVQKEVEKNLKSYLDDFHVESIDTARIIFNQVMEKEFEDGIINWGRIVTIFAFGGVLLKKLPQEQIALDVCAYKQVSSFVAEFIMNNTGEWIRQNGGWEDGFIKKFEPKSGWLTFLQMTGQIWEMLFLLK

Chain of Perilipin-1/ABHD5 (Q8WTS1 whole entry, the tested form may be a part): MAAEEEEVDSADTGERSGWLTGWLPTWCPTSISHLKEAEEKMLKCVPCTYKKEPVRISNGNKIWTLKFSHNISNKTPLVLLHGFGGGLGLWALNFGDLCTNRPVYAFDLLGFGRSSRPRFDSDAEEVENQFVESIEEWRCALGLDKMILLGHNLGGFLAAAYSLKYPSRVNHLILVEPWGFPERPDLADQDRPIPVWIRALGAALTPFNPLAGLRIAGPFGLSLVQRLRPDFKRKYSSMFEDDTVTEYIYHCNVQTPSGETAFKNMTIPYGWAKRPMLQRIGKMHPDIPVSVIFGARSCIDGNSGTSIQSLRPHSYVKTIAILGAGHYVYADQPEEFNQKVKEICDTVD
Chain of Perilipin-1/ABHD5 (O60240 whole entry, the tested form may be a part): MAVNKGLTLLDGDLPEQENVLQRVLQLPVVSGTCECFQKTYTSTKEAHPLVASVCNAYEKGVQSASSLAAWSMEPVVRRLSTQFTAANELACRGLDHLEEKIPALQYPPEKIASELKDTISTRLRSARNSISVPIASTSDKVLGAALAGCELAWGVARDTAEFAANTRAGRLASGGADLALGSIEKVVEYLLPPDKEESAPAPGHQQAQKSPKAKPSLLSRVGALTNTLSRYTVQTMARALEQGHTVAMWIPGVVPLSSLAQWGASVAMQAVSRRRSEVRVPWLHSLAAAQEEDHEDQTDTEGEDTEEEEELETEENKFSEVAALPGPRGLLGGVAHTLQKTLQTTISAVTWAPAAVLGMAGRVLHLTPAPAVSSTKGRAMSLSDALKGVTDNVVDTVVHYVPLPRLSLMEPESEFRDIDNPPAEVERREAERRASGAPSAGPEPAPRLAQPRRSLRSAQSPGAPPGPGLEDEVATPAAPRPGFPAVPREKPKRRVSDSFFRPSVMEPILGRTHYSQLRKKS
Chain of 1-acylglycerol-3-phosphate O-acyltransferase ABHD5/Perilipin-5 (Q00G26 whole entry, the tested form may be a part): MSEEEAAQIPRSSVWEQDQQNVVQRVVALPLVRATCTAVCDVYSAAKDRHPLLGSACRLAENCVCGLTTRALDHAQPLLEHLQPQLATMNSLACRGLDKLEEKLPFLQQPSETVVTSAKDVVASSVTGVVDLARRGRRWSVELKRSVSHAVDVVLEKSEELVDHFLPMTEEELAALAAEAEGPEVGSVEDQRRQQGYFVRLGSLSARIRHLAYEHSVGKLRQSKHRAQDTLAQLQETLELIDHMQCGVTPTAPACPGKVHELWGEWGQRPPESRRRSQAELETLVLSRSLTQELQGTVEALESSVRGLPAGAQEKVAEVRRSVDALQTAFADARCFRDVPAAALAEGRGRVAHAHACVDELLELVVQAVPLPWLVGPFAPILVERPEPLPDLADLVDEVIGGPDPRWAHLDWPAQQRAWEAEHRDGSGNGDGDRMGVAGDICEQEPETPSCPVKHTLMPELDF
Chain of 1-acylglycerol-3-phosphate O-acyltransferase ABHD5/Perilipin-5 (Q8WTS1 whole entry, the tested form may be a part): as the sequence (Q8WTS1 whole entry, the tested form may be a part) above
T5 sequence (Q00975 whole entry): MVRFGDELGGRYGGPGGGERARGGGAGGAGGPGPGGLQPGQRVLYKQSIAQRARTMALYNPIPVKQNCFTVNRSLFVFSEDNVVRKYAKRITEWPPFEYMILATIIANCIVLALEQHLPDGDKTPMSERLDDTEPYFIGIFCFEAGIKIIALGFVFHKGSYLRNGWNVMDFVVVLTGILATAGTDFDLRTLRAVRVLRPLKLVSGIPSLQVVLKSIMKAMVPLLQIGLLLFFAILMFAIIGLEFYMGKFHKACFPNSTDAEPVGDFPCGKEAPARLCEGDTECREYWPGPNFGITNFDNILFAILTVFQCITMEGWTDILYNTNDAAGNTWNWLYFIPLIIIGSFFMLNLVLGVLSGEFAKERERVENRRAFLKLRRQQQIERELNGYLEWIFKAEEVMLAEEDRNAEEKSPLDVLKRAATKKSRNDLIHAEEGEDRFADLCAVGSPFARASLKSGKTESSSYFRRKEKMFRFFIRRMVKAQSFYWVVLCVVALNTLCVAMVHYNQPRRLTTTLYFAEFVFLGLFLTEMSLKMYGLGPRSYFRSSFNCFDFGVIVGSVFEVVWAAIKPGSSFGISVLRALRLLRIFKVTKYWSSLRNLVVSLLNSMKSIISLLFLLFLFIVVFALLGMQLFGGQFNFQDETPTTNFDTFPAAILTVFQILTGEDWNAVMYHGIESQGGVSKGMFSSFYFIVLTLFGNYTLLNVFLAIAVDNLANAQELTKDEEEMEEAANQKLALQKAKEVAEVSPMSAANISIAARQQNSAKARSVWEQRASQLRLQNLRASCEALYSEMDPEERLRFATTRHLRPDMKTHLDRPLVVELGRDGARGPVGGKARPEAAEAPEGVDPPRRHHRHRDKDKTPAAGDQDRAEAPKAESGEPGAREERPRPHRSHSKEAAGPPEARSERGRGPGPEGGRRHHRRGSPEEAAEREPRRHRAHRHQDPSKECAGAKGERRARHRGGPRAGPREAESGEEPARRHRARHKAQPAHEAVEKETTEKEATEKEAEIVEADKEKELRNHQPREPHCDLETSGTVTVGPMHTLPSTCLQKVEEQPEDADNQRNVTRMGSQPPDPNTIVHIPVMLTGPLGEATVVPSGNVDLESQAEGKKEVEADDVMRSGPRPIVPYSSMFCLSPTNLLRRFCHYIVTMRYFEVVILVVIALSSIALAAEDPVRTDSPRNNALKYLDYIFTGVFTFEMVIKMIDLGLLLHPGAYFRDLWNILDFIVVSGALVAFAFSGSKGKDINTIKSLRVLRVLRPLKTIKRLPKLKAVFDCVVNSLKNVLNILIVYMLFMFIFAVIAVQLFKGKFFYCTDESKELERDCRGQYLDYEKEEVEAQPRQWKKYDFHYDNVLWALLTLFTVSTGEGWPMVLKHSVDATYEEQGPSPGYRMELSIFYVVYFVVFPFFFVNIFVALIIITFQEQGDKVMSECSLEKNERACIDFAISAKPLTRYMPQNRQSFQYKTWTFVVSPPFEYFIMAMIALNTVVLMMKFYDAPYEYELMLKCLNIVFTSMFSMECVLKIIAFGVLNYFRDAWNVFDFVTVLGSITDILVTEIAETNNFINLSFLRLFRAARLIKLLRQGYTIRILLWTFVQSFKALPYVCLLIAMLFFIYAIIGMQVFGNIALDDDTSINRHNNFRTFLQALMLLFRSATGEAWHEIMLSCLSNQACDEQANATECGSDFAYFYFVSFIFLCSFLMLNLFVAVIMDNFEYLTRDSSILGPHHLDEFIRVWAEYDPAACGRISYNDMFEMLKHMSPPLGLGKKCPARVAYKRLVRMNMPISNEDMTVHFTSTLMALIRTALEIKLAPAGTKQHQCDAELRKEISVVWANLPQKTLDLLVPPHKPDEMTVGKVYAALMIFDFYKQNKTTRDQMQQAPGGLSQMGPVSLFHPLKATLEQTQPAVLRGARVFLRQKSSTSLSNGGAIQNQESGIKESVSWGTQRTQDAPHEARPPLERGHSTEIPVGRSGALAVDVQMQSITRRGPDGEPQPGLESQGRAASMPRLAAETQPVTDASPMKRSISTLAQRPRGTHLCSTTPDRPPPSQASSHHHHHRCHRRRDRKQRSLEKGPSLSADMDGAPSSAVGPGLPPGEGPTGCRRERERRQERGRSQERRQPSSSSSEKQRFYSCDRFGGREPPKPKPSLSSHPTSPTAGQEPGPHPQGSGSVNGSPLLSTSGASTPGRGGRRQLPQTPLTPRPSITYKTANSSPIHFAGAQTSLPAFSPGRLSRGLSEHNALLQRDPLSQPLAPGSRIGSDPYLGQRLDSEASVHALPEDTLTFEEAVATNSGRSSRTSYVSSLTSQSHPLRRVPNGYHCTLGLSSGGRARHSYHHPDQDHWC
T5 sequence (Q02410 whole entry): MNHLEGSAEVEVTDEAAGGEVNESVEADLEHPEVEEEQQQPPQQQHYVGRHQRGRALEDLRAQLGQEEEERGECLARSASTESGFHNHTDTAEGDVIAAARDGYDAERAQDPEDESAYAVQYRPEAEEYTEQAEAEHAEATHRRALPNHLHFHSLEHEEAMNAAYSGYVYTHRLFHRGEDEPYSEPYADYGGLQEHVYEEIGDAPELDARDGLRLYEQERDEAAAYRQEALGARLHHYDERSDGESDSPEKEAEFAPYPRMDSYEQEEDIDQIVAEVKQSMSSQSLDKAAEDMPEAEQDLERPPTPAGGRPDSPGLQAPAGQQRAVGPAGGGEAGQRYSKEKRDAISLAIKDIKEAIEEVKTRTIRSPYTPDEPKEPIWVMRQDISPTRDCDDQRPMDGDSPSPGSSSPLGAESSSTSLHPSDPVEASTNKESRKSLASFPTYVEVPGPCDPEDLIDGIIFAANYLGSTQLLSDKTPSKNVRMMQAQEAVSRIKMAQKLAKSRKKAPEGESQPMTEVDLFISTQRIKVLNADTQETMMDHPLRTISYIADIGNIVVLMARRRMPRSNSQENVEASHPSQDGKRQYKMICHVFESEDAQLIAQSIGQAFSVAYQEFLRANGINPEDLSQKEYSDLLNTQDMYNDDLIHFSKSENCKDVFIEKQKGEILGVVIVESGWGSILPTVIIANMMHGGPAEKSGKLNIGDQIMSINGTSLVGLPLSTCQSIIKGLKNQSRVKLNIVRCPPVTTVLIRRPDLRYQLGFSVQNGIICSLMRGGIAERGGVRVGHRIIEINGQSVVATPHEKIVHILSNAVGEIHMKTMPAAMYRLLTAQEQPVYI
Chain of Alkaline phosphatase, placental type (P05187 whole entry): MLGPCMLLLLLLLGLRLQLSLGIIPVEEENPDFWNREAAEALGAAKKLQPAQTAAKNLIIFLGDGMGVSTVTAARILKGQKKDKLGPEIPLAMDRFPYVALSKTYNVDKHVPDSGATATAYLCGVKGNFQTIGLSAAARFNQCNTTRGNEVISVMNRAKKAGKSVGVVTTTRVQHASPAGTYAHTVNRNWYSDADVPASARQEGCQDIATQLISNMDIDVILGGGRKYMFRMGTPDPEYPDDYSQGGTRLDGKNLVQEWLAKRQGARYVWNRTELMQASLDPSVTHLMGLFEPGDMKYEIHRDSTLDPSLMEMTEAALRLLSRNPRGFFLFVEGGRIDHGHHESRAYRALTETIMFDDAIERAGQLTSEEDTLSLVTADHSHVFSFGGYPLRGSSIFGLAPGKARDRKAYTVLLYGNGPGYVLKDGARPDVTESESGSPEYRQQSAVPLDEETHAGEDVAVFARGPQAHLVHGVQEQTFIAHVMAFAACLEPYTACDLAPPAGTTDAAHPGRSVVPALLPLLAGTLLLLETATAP

- IC50 [2]: 12.2 µM (active)
Compound: COc1ccc(NC(=O)Nc2ccc3nc(-c4ccco4)c(-c4ccco4)nc3c2)cc1

- IC50 [5]: 50 µM (inactive)
- IC50 [6]: 20.6 µM (inactive)
- IC50 [7]: 20.8 µM (inactive)
Compound: CC1(C)c2ccccc2N2CC(=O)NC21/C=C/c1ccco1 (stereo not drawn)

- EC50 [8]: 1.5 µM (active)
Compound: Cc1ccc(O)c(CNc2nc3ccccc3[nH]2)c1

The next lines start with the molecule.

Compound: CCNC(=O)NC(=O)C(C)OC(=O)c1c(C)nn(Cc2ccccc2Cl)c1Cl (stereo not drawn)
- EC50 [1]: 1.5 µM (active) and 2.5 µM (active)

Compound: Cn1ccnc1SCC(=O)c1ccc(O)c(O)c1
- IC50 [3]: 8.56 µM (active)
- IC50 [4]: 75.7 µM (active)

Compound: CCOC(=O)c1ccc(N=Nc2c(O)nc(O)c(C#N)c2C)cc1
- IC50 [9]: 3.18 µM (active)
- IC50 [10]: > 56.8 µM (not active)
- IC50 [11]: > 50 µM (inactive)

Compound: Clc1ccccc1-c1nnc2c3cnn(-c4ccccc4)c3ncn12
- IC50 [12]: > 100 µM (not active)
- IC50 [3]: > 100 µM (inactive)
- IC50 [4]: > 100 µM (inactive)

Compound: O=C(NCCN1CCOCC1)c1cc2sccc2n1Cc1ccc(F)cc1
- EC50 [13]: > 59.7 µM (inactive)
- EC50 [8]: 5.96 µM (active)
- EC50 [14]: > 59.7 µM (inactive)

Compound: CCOc1cc2c3c(c1)C(C)=CC(C)(C)N3C(=O)C2=O
- IC50 [6]: 15 µM (inactive)
- IC50 [7]: 15.3 µM (inactive)

Compound: CCc1ccc2nc(N(CCCN(C)C)C(=O)c3ccc(S(=O)(=O)N4CCc5ccccc5C4)cc3)sc2c1
- IC50 [15]: 4.58 µM (active)
- EC50 [16]: > 92.5 µM (inactive)
- EC50 [17]: > 100 µM (inactive)
- EC50 [18]: > 92.5 µM (inactive)
- EC50 [19]: > 92.5 µM (inactive)
- IC50 [20]: 4.49 µM (active)
- IC50 [21]: 80 µM (inactive)
- IC50 [22]: > 20 µM (inactive)

Compound: Cc1ccc(OCC(=O)NCCc2ccc(Cl)cc2Cl)c([N+](=O)[O-])n1
- EC50 [1]: > 50 µM (inactive)

From ChEMBL document CHEMBL1201862, “PubChem BioAssay data set” (2004)
